Laboratory results taken from patent US20180186968A1, “AGENT FOR SUPPRESSING ODORS OF POLYSULFIDE COMPOUNDS” (KAO CORPORATION, priority 2015, published 2018).

Tests used:
[1] = target: T1, olfactory receptor OR4S2 (Homo sapiens, UniProt Q8NH73); test: Luciferase reporter gene assay: suppression of OR4S2 response to DMDS or DMTS by test substance (OR4S2 antagonist search); type: cell-based; conditions: for response of OR4S2 to DMDS in the presence of test substance (Response %): DMDS 1 mM, test substance 0 to 3000 μM, FIG. 4; for response of OR4S2 to DMTS in the presence of test substance (Fold increase): DMTS 300 μM, test substance 100 μM, FIG. 5
T1 construct: Flag-Rho tag (N); expressed in transfected cells; host or cells: HEK293
T1 sequence (Q8NH73 1-311): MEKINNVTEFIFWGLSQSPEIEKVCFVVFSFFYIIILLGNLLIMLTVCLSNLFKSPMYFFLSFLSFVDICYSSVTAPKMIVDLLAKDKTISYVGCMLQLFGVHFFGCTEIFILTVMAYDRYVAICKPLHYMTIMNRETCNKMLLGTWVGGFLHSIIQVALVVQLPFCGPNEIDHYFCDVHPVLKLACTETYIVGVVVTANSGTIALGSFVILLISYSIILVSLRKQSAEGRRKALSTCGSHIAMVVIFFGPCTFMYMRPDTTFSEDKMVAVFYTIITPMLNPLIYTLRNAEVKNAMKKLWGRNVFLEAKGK
Description: By using the same procedure as in Example 1 (1) to (3), HEK293 cells expressing OR4S2 (SEQ ID NO: 1) were prepared. The response of the olfactory receptor to DMDS (the value fLuc/hRluc) was measured in the presence and absence of a test substance by using luciferase reporter gene assay in accordance with the procedure in Example 1 (4). The value fLuc/hRluc induced by a stimulus of single DMDS, (X), the value fLuc/hRluc for cells without a stimulus of DMDS, (Y), and the value fLuc/hRluc induced by a co-stimulus of DMDS and a test substance, (Z), were determined, and the intensity of the response (Response (%)) of the receptor to DMDS in the presence of a test substance was determined by using the following formula.
Response (%)=(Z−Y)/(X−Y)×100
The experiment s performed independently three times, and the average value of the experiments was determined. The concentration of DMDS to be added to a culture was set a 1 mM, and the concentration of a test substance to be added was changed in the range of 0 to 3000 μM.
For the response to DMTS, the value fLuc/hRluc to a stimulus of single DMTS, (X′), was divided by the value fLuc/hRluc for cells without a stimulus of DMTS, (Y), and the calculated value, (X′/Y), was calculated as a value of the response to DMTS Fold increase). To compare the effect of a test substance on the response to DMTS, the value fLuc/hRluc induced by a co-stimulus of DMTS and a test substance, (Z′), was similarly divided by the value fLuc/hRluc for cells without a stimulus, (Y), to calculate (Z′/Y) as Fold increase. The experiment was performed independently three times, and the average value of the experiments was determined. The concentration of DMTS to be added to a culture was set at 300 μM, and the concentration of a test substance to be added set at 100 μM.

[2] = Sensory test of odor-suppressing effect for polysulfide compounds; type: in vivo, human; conditions: for odor intensity of DMTS (sensory evaluation): 0.01% (v/v) DMTS and 0.1% (v/v) test substance in mineral oil, 11 evaluators, FIG. 7; for odor intensity of DMDS (sensory evaluation): 0.1% (v/v) DMDS and 0.1% (v/v) test substance in mineral oil, 10 evaluators, FIG. 6
Description: The odor-suppressing effect of each of trimethylhexyl aldehyde (THA), cis-4-heptenal, and 1,4-cineol, as the OR4S2 antagonists identified in Example 2, for polysulfide compounds was checked in a sensory test.
For each of DMDS, THA, cis-4-heptenal, and 1,4-cineol, a 0.1% (v/v) solution in mineral oil was prepared. For DMTS, a 0.01% (v/v) solution in mineral oil was prepared. Two cotton balls were put in 20 mL glass bottle (Maruemu Corporation, No. 6), and one cottonball was impregnated with 30 μL of the DMDS or DMTS solution, and the other cotton ball was impregnated with 30 μL of a solution of one of the three OR4S2 antagonists. The glass bottle containing the cotton balls was covered with a lid, and left to stand at 37° C. for 1 hour, and thereafter used as a test sample for a sensory test. Glass bottles containing only cotton ball impregnated with the DMDS or DMTS solution were prepared as reference samples, and a glass bottle containing only cotton ball impregnated with mineral oil (Vehicle) was prepared as a control sample.
A sensory test was performed in a single-blinded mode with 10 evaluators for DMDS and 11evaluators for DMTS. The test was initiated after two o'clock pm, which was 1.5 hours or longer after a meal. To prevent diffusion of a smell, the test was performed essentially under a fume hood. To eliminate the influence of adaptation to odors of polysulfide compounds, the evaluators were appropriately checked for the intensity of recognition to the odor of DMDS or DMTS in the test, and rested as necessary. The evaluators were separated into two groups, and one group evaluated the odor-suppressing effect for DMDS or DMTS with respect to THA, cis-4-heptenal, and 1,4-cineol, in the presented, and the other group evaluated in with respect to 1,4-cineol, cis-4-heptenal, and THA, in the order presented. Each test sample was replaced with another one after evaluation by each of three evaluators.
In evaluation of odors of test samples, the following criteria in five grades were set for each evaluator; “odor of DMDS (or DMTS) was 1: unidentifiable, 2: perceivable, 3: easily identifiable, 4: strong, 5: intolerably strong”, and the evaluators rated the odor intensity of DMDS (or DMTS) for each test sample in nine grades from 1.0 to 5.0 at an interval of 0.5, where the odor intensity of single DMDS (or DMTS) was assumed as 3. The average value of the evaluation results by the evaluators was determined.

[3] = target: T1, olfactory receptor OR4S2; test: Luciferase reporter gene assay: response of olfactory receptor to sulfur compounds; type: cell-based; conditions: for response of olfactory receptor OR4S2 to polysulfide compound (fold increase): 100 μM polysulfide compound, 428 olfactory receptors measured, HEK293 cells, FIG. 1; for response of OR4S2 at different concentrations: HEK293 cells expressing OR4S2, FIG. 2
Text: A human olfactory receptor cloned using the PCR method with human genomic DNA (G1521:Promega Corporation) as a template on the basis of sequence information registered in GenBank. Each gene amplified through the PCR method was incorporated into a pENTR vector (Invitrogen) in accordance with the manual, and recombined, by utilizing the NotI and AscI sites present in the pENTR vector, with a pME18S vector at the NotI and AscI sites produced in the downstream of he Flag-Rho tag sequence of the pME18S vector. • (2) Preparation of pME18S-human RTP1S Vector
A vector expressing receptor-transporting protein (RTP), a protein which promotes the expression of an olfactory receptor polypeptide on the cell membrane, was prepared. Specifically, a gene encoding human RTP1S (GI: 50234917) was incorporated into a pME18S vector at the EcoRI and XhoI sites thereof. • (3) Preparation of Olfactory Receptor-expressing Cells
HEK293 cells expressing any one of human olfactory receptors were produced. A reaction solution with a composition shown in Table 2 was prepared and left to stand in a clean bench for 15 minutes, and then added to each well of a 96-well plate (BD Biosciences). Subsequently, 90 μL of HEK293 cells (3×10^5 cells/cm^2) was seeded in each well, and cultured in an incubator retained at 37° C. and 5% CO2 for 24 hours. As a control, cells with conditions for no expression of an olfactory receptor (Mock) were prepared and used in an experiment.
An olfactory receptor expressed on HEK293 cells increases the intracellular cAMP level through conjugation with the intracellular Gas followed by resulting activation of adenylate cyclase. For smell response measurement in this study, luciferase reporter gene assay was used in which increase of the intracellular cAMP level is monitored as an emission value derived from a firefly luciferase gene (fluc2P-CRE-hygro). Transgenesis was simultaneously performed by using a product with a sea pansy luciferase gene fused to the downstream of the CMV promoter (hRluc-CMV), and the resultant was used as an internal standard to correct errors of transgenesis efficiency and the number of cells.
The medium was removed from the culture prepared in the above(3), and 75 μL of a solution containing a polysulfide compound prepared with DMEM (NACALAI TESQUE, INC.) was added. The polysulfide compound was 100 μM of dimethyl disulfide (DMDS) or dimethyl trisulfide (DMTS). The cells were cultured in a CO2 incubator for 3 hours to allow the luciferase gene to be sufficiently expressed in the cells. Measurement of the activity of luciferase was performed by using a Dual-Glo (TM) luciferase assay system (Promega Corporation) in accordance with an operation manual of the product. For each stimulus condition, the value fLuc/hRluc was calculated by dividing the emission value derived from sea pansy luciferase. The value fLuc/hRluc derived from firefly luciferase and induced by a stimulus of a polysulfide compound was divided by the value fLuc/hRluc for cells without a stimulus of a polysulfide compound to calculate a fold increase, and the fold increase was used as an indicator of intensity of response. • (5) Results

Compound	response of OR4S2 to DMDS in the presence of test substance (Response %) [1]	response of OR4S2 to DMTS in the presence of test substance (Fold increase) [1]	odor intensity of DMTS (sensory evaluation) [2]	odor intensity of DMDS (sensory evaluation) [2]	further results
CC/C=C\CCC=O [cis-4-heptenal, (Z)-Hept-4-enal]	suppressed the response of OR4S2 to DMDS in a concentration-dependent manner	suppressed the response of OR4S2 to DMTS	suppressed the odor intensity	suppressed the odor intensity	–
CC1=CC=C(C(C)C)CC1 [α-terpinene, p-Mentha-1,3-diene]	suppressed the response of OR4S2 to DMDS in a concentration-dependent manner	suppressed the response of OR4S2 to DMTS	–	–	–
CC(CC=O)CC(C)(C)C (stereo not drawn) [Trimethylhexyl aldehyde, 3,5,5-Trimethylhexanal]	suppressed the response of OR4S2 to DMDS in a concentration-dependent manner	suppressed the response of OR4S2 to DMTS	suppressed the odor intensity	suppressed the odor intensity	–
CC(C)C12CCC(C)(CC1)O2 [1,4-cineol, 1,4-Cineole]	suppressed the response of OR4S2 to DMDS in a concentration-dependent manner	suppressed the response of OR4S2 to DMTS	suppressed the odor intensity	suppressed the odor intensity	–
(+)-Limonene oxide	suppressed the response of OR4S2 to DMDS in a concentration-dependent manner	suppressed the response of OR4S2 to DMTS	–	–	–
CSSSC [DMTS, Dimethyl trisulfide]	–	–	–	–	response of olfactory receptor OR4S2 to polysulfide compound (fold increase) [3]: exhibits a specific response; response of OR4S2 at different concentrations [3]: concentration-dependent manner
CCCCOC(=O)C(C)CC (stereo not drawn) [butyl 2-methylbutanoate, Butyl 2-methylbutanoate]	suppressed the response of OR4S2 to DMDS in a concentration-dependent manner	suppressed the response of OR4S2 to DMTS	–	–	–
C=C(C)[C@H]1CC=C(C)CC1 [dipentene, Dipentene]	suppressed the response of OR4S2 to DMDS in a concentration-dependent manner	–	–	–	–
CS [methylmercaptan, Methylmercaptan]	–	–	–	–	response of OR4S2 to methylmercaptan ([3]; 3 mm test substance, FIG. 3): did not respond
CSSC [DMDS, Dimethyl disulfide]	–	–	–	–	response of olfactory receptor OR4S2 to polysulfide compound (fold increase) [3]: exhibits a specific response; response of OR4S2 at different concentrations [3]: concentration-dependent manner
